According to patent US8268842B2, “Fused ring 4-oxopyrimidine derivative” (MSD K.K., priority 2004, dated 2012):
Where two headings read alike, the source gives them in different places.

Experiments:
[1] = biological target: T1, human histamine H3 receptor (Homo sapiens, UniProt Q9Y5N1); test: Histamine analog coupling inhibition test; format: binding
T1 construct: expressed in transfected cells; host or cells: HEK293 and CHO-K1
Source text: A cDNA sequence [International Patent Application WO00/3916 Specification No. 4] which encodes human histamine H3 receptor was cloned using the expression vectors pCR2.1, pEF1x (product of Invitrogen), and pCI-neo (product of Promega Inc.). The expression vector obtained was transfected to the host cells, HEK293 and CHO-K1 (American type culture collection), using the cationic lipid method [Proceedings of the National Academy of Sciences of the United States of America, Vol. 84, p. 7413 (1987), and histamine H3 receptor expression cells were thus obtained.
A film preparation made from the cells which represented the histamine H3 receptor, the test compound (the compound of Example 1) and 20,000 cpm of [3H]N-α-methylhistamine (product of NEN) were incubated in an assay buffer solution (50 mM Tris buffer solution, pH 7.4) at 25° C. for 2 hours, and filtered on a glass filter GF/C. After washing by 50 mM Tris buffer solution, pH7.4, the radioactivity on the glass filter was found. Non-specific linkages were measured in the presence of 10 microM thioperamide (product of SIGAM), and the 50% inhibition concentration (IC50 value) of the test compound with respect to specific N-α-methylhistamine linkages was found (Molecular Pharmacology, Vol. 55, p. 1101 (1999)).

histamine H3 receptor = biological target: T2, histamine H3 receptor (Rattus norvegicus, UniProt Q9QYN8); test: Antagonism test of drinking behavior induced by R-α-methylhistamine, a histamine H3 receptor selective agonist; format: in vivo; settings: male SD rat, 10 mg/kg oral 2 hours before R-α-methylhistamine, measured 1 hour after
T2 construct: from tissue; host or cells: living male SD rat (brain, third ventricle agonist administration)
T2 sequence (Q9QYN8 whole entry): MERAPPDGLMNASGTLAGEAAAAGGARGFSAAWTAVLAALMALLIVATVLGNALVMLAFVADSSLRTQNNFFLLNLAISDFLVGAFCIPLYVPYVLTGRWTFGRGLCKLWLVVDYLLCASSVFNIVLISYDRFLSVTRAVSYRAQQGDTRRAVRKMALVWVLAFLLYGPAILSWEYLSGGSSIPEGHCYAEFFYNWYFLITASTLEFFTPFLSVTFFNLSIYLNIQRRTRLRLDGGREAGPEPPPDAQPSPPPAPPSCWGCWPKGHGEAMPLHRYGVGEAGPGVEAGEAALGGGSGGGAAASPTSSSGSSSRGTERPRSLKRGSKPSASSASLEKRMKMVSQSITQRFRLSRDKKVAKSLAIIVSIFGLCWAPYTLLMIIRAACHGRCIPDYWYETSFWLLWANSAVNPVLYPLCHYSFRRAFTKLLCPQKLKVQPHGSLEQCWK
Description: Under ketamine/xylazine anaesthesia (74 mg/kg and 11 mg/kg intraperitoneal single-dose administration), a chronic guide cannula (26 gauge, length 11 mm) was inserted in the ventriculus tertius of a male SD rat (7-10 weeks old, 200-300 g) using a brain stereotaxis apparatus, and fixed by dental resin. The position of the tip of the guide cannula was 2.2 mm back from the bregma, and at a depth of 8 mm from the skull surface on the median line. After about 1 week convalescence, R-α-methylhistamine (0.3 μg/1 μL/head, 30% propylene glycol solution) was administered to the ventriculus tertius. The test compound (the compound of Example 1) suspended in 0.5% methylcellulose aqueous solution was administered orally 2 hours before the R-α-methylhistamine administration, and the drinking water amount was measured 1 hour after R-α-methylhistamine administration.

[2] = Kinetic test (plasma concentration after oral or intravenous administration); format: in vivo; settings: rat, SD type male rats, fasted overnight
Description: The test compound (the compound of Example 1) was administered orally or intravenously to SD type male rats (7-10 weeks old, 200-400 g) which had abstained from food overnight, and about 100 μL of blood was collected from a caudal vein using a heparinized capillary tube at a predetermined time. The blood was centrifuged (4° C., 6000 rpm, 10 minutes), and plasma was obtained. Three times the amount of ethanol (containing an internal reference) was added to the plasma, stirred, left for 20 minutes at −20° C., and centrifuged (4° C., 10,000 rpm, 10 minutes). The supernatant liquid was analyzed by LC/MS/MS, and the plasma concentration was measured by the relative calibration curve method.

[3] = Brain/cerebrospinal fluid activity test; format: in vivo, rat; settings: SD type male rats, 2 hours after oral administration (10 mg/kg); for concentration at 2 h: rat
Description: The test compound (the compound of Example 1) was administered orally or intravenously to SD type male rats (7-10 weeks old, 200-400 g), and exsanguination was performed from the abdominal aorta under ether anesthesia using a heparin treatment syringe at a predetermined time. The skin at the back of the head was cut open, pierced with a 30G dental needle between the cervical vertebrae, and inserted into the subarachnoid space. 50-100 μL of cerebrospinal fluid was extracted by a 1 mL syringe via a tube connected to the 30G needle, and the brain was extracted. A blood sample was centrifuged (4° C., 6000 rpm, 10 minutes), and three times the amount of ethanol (containing an internal reference) was added to the plasma and stirred. 2 mL of water was added to a brain sample, homogenized, a part was removed, and three times the amount of ethanol (containing an internal reference) was added and stirred. The cerebrospinal fluid was taken, three times the amount of ethanol (containing an internal reference) was added, and stirred. The above sample was left at −20° C. for 20 minutes, centrifuged (4° C., 12,000 g, 10 minutes), the supernatant liquid was analyzed by LC/MS/MS, and the concentration in plasma, brain and cerebrospinal fluid was measured by the relative calibration curve method.

T1 sequence (Q9Y5N1 whole entry): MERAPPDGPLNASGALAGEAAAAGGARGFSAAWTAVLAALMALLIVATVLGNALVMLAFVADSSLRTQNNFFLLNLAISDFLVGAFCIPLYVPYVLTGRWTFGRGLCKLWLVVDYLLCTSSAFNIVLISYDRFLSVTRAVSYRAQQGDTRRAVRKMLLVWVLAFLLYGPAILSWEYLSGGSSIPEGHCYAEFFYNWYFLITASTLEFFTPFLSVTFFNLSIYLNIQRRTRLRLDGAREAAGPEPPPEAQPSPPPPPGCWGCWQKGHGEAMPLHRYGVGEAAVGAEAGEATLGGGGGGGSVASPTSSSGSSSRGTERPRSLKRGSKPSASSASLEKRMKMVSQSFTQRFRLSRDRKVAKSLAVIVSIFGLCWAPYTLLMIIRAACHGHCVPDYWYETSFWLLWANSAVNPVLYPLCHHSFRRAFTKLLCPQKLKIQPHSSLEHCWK

Compound | melting point [°C] | further results
Cc1nc2c(F)cccc2c(=O)n1-c1ccc(OC2CCN(C3CCC3)CC2)cc1 [Example 242, 3-{4-[(1-cyclobutylpiperidin-4-yl)oxy]phenyl}-8-fluoro-2-methyl-4(3H)-quinazolinone] | 177 to 179 | 
Cc1nc2cnccc2c(=O)n1-c1ccc(OC2CCN(C3CCC3)CC2)cc1 [Example 114, 3-{4-[(1-cyclobutyl-4-piperidinyl)oxy]phenyl}-2-methylpyrido[3,4-d]pyrimidin-4(3H)-one] | 169 to 171 | 
Cc1nc2cnc(F)cc2c(=O)n1-c1ccc(OC2CCN(C3CCC3)CC2)cc1 [Example 230, 3-{4-[(1-cyclobutyl-piperidin-4-yl)oxy]phenyl}-6-fluoro-2-methylpyrido[3,4-d]pyrimidin-4(3H)-one] | 161 to 163 | 
Cc1nc2ncccc2c(=O)n1-c1ccc(OCCCN2CCC[C@H](C)C2)cc1.Cl | 255 to 262 | 
CCc1nc2ccncc2c(=O)n1-c1ccc(OC2CCN(C3CCC3)CC2)cc1 [Example 109, 3-{4-[(1-cyclobutyl-4-piperidinyl)oxy]phenyl}-2-ethylpyrido[4,3-d]pyrimidin-4(3H)-one] | 186 to 189 | 
Cc1nc2cccc(F)c2c(=O)n1-c1ccc(OCCCN2CCCCC2)cc1 [Example 26, 5-fluoro-2-methyl-3-{4-[3-(1-piperidinyl)propoxy]phenyl}-4(3H)-quinazolinone] | 141 to 145 | 
COc1ccc2nc(C)n(-c3ccc(OCCCN4CCC[C@H]4C)cc3)c(=O)c2c1 [Example 172, 6-methoxy-2-methyl-3-(4-{3-[(2R)-2-methylpyrrolidin-1-yl]propoxy}phenyl)-4(3H)-quinazolinone] | 106 to 108 | 
Cc1nc2ccncc2c(=O)n1-c1ccc(OC2CCN(C3CCCC3)CC2)cc1 [Example 101, 3-{4-[(1-cyclopentyl-4-piperidinyl)oxy]phenyl}-2-methylpyrido[4,3-d]pyrimidin-4(3H)-one] | 140 to 143 | 
COc1cccc2nc(C)n(-c3ccc(OCCCN4CCC[C@H](C)C4)cc3)c(=O)c12 [Example 164, 5-methoxy-2-methyl-3-(4-{3-[(3S)-3-methylpiperidin-1-yl]propoxy}phenyl)-4(3H)-quinazolinone] | 144 to 146 | 
COc1ccc2nc(C)n(-c3ccc(OC4CCN(C5CCC5)CC4)cc3)c(=O)c2c1 [Example 228, 3-{4-[(1-cyclobutylpiperidin-4-yl)oxy]phenyl}-6-methoxy-2-methyl-4(3H)-quinazolinone] | 171 to 173 | 
COc1ccc2nc(C)n(-c3ccc(OCCCN4CCC[C@@H]4C)cc3)c(=O)c2c1 [Example 144, 6-methoxy-2-methyl-3-(4-{3-[(2S)-2-methylpyrrolidin-1-yl]propoxy}phenyl)-4(3H)-quinazolinone] | 102 to 106 | 
COc1cc2c(=O)n(-c3ccc(OCCCN4CCCCC4)cc3)c(C)nc2cn1 [Example 199, 6-methoxy-2-methyl-3-[4-(3-piperidin-1-ylpropoxy)phenyl]pyrido[3,4-d]pyrimidin-4(3H)-one] | 145 to 147 | 
Cc1nc2cc(F)ccc2c(=O)n1-c1ccc(OC2CCN(C3CCC3)CC2)cc1 [Example 233, 3-{4-[(1-cyclobutylpiperidin-4-yl)oxy]phenyl}-7-fluoro-2-methyl-4(3H)-quinazolinone] | 163 to 166 | 
Cc1nc2cccc(F)c2c(=O)n1-c1ccc(OCCCN2CCC[C@H]2C)cc1 [Example 260, 5-fluoro-2-methyl-3-(4-{3-[(2R)-2-methylpyrrolidin-1-yl]propoxy}phenyl)-4(3H)-quinazolinone] | 125 to 127 | 
COc1ccc2nc(C)n(-c3ccc(OCCCN4CCCCC4)cc3)c(=O)c2c1 [Example 36, 6-methoxy-2-methyl-3-{4-[3-(1-piperidinyl)propoxy]phenyl}-4(3H)-quinazolinone] | 136 to 138 | 
CCc1nc2ccccc2c(=O)n1-c1ccc(OCCCN2CCCCC2)cc1 [Example 1, 2-ethyl-3-{4-[3-(1-piperidinyl)propoxy]phenyl}-4(3H)-quinazolinone] |  | IC50 ([1]; [3H]N-α-methylhistamine, preparation from histamine H3 receptor expression cells, 50 mM Tris pH 7.4, 25° C., 2 hours, read-out: 50% inhibition concentration (IC50 value) with respect to specific N-α-methylhistamine linkages): 15 nM; binding of N-α-methylhistamine to the histamine H3 receptor ([1]; summary in words of the binding test): strongly prevented binding; increase in drinking water amount due to R-α-methylhistamine administered to the ventriculus tertius (histamine H3 receptor): significantly suppressed; bioavailability [2]: 60%; half-life ([2]; read-out: half-life in blood (converted)): 6.3 h; intracerebral concentration [3]: 3.16 nmol/g; concentration at 2 h ([3]; cerebrospinal fluid, read-out: cerebrospinal fluid concentration): 142 nM; concentration at 2 h ([3]; plasma, read-out: plasma concentration): 2320 nM
COc1ccc2c(=O)n(-c3ccc(OCCCN4CCC[C@H](C)C4)cc3)c(C)nc2c1 [Example 170, 7-methoxy-2-methyl-3-(4-{3-[(3S)-3-methyl-piperidin-1-yl]propoxy}phenyl)-4(3H)-quinazolinone] | 94 to 96 | 
CCc1nc2ncccc2c(=O)n1-c1ccc(OC2CCN(C3CCC3)CC2)cc1 [Example 111, 3-{4-[(1-cyclobutyl-4-piperidinyl)oxy]phenyl}-2-ethylpyrido[2,3-d]pyrimidin-4(3H)-one] | 146 to 148 | 
COc1cc2c(=O)n(-c3ccc(OCCCN4CCCC4)cc3)c(C)nc2cn1 [Example 200, 6-methoxy-2-methyl-3-[4-(3-pyrrolidin-1-ylpropoxy)phenyl]pyrido[3,4-d]-pyrimidin-4(3H)-one] | 123 to 126 | 
Cc1nc2ccc(F)cc2c(=O)n1-c1ccc(OC2CCN(C3CCC3)CC2)cc1 [Example 232, 3-{4-[(1-cyclobutylpiperidin-4-yl)oxy]phenyl}-6-fluoro-2-methyl-4(3H)-quinazolinone] | 122 to 125 | 
CCc1nc2ncccc2c(=O)n1-c1ccc(OCCCN2CCC[C@H](C)C2)cc1.Cl | 245 to 252 | 
Cc1nc2ccncc2c(=O)n1-c1ccc(OCCCN2CCC[C@H]2C)cc1 [Example 266, 2-methyl-3-(4-{3-[(2R)-2-methylpyrrolidin-1-yl]propoxy}phenyl)pyrido[4,3-d]pyrimidin-4(3H)-one] | 238 to 250 | 
